Measurements as given in patent publication US7811778B2, “Methods of screening for gastrointestinal cancer” (Vanderbilt University, priority 2006, dated 2010).
Entries after “also recorded” stand apart in the source; their conditions may differ.

Tested on: emerging SPEM cells at the bases of fundic glands
Experiment: Gene microarray analysis of laser-capture microdissected chief cells and emerging SPEM cells (Affymetrix Mouse 430 2.0)
Type: in vivo, gastrin-deficient mice
Procedure: See Nomura, S., Yamaguchi, H., Wang, T. C., Lee, J. R., and Goldenring, J. R. 2004. Alterations in gastric mucosal lineages induced by acute oxyntic atrophy in wild type and gastrin deficient mice. Amer. J. Physiol. 288:G362-G375. […] To examine this hypothesis more directly, chief cells were microdissected from the very bases of untreated gastrin knockout mice as well as SPEM cells at the base of fundic glands after 1 and 3 days of treatment with DMP-777. Total RNA was prepared from 10,000 cells isolated from 4 different mice in each group. For each of the 12 samples, linear amplification was performed and Affymetrix Mouse 2.0 gene microarrays were probed. […] Second, 30 genes were identified as being involved in G1-S interface transition, including 5 MCM proteins, BRCA1, RIS2, RAD51, TACC3 and ligase1. Immunocytochemistry was used to confirm the upregulation of MCM3 as well as TACC3 in SPEM cells located at the base of fundic glands in mice treated for 1 or 3 days with DMP-777. All of these changes are consistent with alterations moving towards a proliferative phenotype. […] See Nomura, S., Yamaguchi, H., Wang, T. C., Lee, J. R., and Goldenring, J. R. 2004. Alterations in gastric mucosal lineages induced by acute oxyntic atrophy in wild type and gastrin deficient mice. Amer. J. Physiol. 288:G362-G375. Thus the up-regulation of proteins involved in the G1/S interface is also consistent with transdifferentiation of chief cells into SPEM, since such changes would require a global transcriptome, alterations that would require unwinding of DNA and changes in gene activation including alteration in DNA methylation.
Gastrin-deficient mice were constructed by targeted disruption of the gastrin gene and were maintained on a C57BL/6 background (Nomura S, Yamaguchi H, Wang T C, Lee J R, Goldenring J R. Alterations in gastric mucosal lineages induced by acute oxyntic atrophy in wild type and gastrin deficient mice. Amer.J.Physiol. 2004; In Press). Mice were treated for 1 or 3 days with oral gavage administration of DMP-777 (a gift of DuPont Pharmaceuticals), formulated in 0.5% methylcellulose (administered orally as a gavage once daily at 350 mg/kg/day). Untreated mice were utilized as controls. Mice were sacrificed and their stomachs were excised and opened along the greater curvature and processed for frozen sections for laser capture microdissection. From the untreated Gastrin-deficient mice, chief cells were microdissected from the bases of gastric glands. The emerging SPEM cells were microdissected from the bases of fundic glands of DMP-777-treated Gastrin-deficient mice after 1 or 3 days of oral drug administration. Cell collections (10,000 cells) and extractions of total RNA were performed as previously described (Nomura S, Baxter S, Yamaguchi T, Leys C, Vartapetian A B, Fox J G, Lee J R, Wang T C, Goldenring J R. Relationship of spasmolytic polypeptide expressing metaplasia (SPEM) to pre-neoplasia in H. felis-infected mice. Gastroenterology 2004; 127:582-594).
Total RNA from microdissected cells were reverse transcribed and amplified through two rounds of linear amplification using a Nugen Ovation kit to amplify and label 10-20 ng of RNA. The resulting single-strand cDNA product was purified by binding to and elution from a Qiagen QIAQUICK® column. The cDNA product was then quantitated and 2.2 μg of the fragmented, labeled product was hybridized to Affymetrix Mouse 430 2.0 microarrays overnight, with staining and scanning performed the next day. Gene expression was analyzed among microdissected cells from 4 untreated gastrin-deficient mice 4 mice treated with DMP-777 for one day and 4 mice treated with DMP-777 for three days. The raw gene expression data (.cel files) were converted to expression values using the Affy function in R (see the Bioconductor website). […]

[1] = DMP-777-treated gastrin-deficient mice, microarray
[2] = gastrin knockout mice, 1 day of DMP-777, SPEM cells vs untreated chief cells, fold increases indicated as the exponential of 2
[3] = gastrin knockout mice, 3 days of DMP-777, SPEM cells vs untreated chief cells, fold increases indicated as the exponential of 2
[4] = gastrin-deficient mice, 350 mg/kg/day oral, 1 day, microdissected SPEM cells vs untreated chief cells

Compound: CCC[C@@H](NC(=O)N1C(=O)C(CC)(CC)[C@@H]1Oc1ccc(C(=O)N2CCN(C)CC2)cc1)c1ccc2c(c1)OCO2 [DMP-777]
- pro-apoptotic genes in the cohort of up-regulated gene transcripts (1 and 3 days of DMP-777-treatment): there were not any pro-apoptotic genes detected; also recorded: No pro-apoptotic genes were detected
- number of up-regulated genes involved in G1-S interface transition (DMP-777 1 and 3 days, at least 2 fold change): 30
- number of the top 50 probes for up-regulated transcripts that detect regulators of the G1/S transition [1]: 34
- transcripts for lipase, a chief cell product [1]: significant decrease
- BRRN1, Day 1 Fold increase, Relative to Control [2]: 2.2 Fold
- CRIP1, Day 1 Fold increase, Relative to Control [2]: 3.2 Fold
- EREG, Day 1 Fold increase, Relative to Control [2]: 1.8 Fold
- EXOSC8, Day 1 Fold increase, Relative to Control [2]: 2.6 Fold
- EXPI, Day 1 Fold increase, Relative to Control [2]: 2.4 Fold
- FIGNL1, Day 1 Fold increase, Relative to Control [2]: 3.3 Fold
- IL1RN, Day 1 Fold increase, Relative to Control [2]: 4.7 Fold
- LGALS3, Day 1 Fold increase, Relative to Control [2]: 5.5 Fold
- NELF, Day 1 Fold increase, Relative to Control [2]: 2.1 Fold
- S100A4, Day 1 Fold increase, Relative to Control [2]: 2.8 Fold
- TMEM40, Day 1 Fold increase, Relative to Control [2]: 1.4 Fold
- TMEM109, Day 1 Fold increase, Relative to Control [2]: 2.5 Fold
- TR1P13, Day 1 Fold increase, Relative to Control [2]: 3.5 Fold
- BRRN1, Day 3 Fold Increase, Relative to Control [3]: 3.1 Fold
- CRIP1, Day 3 Fold Increase, Relative to Control [3]: 5.4 Fold
- EREG, Day 3 Fold Increase, Relative to Control [3]: 4.8 Fold
- EXOSC8, Day 3 Fold Increase, Relative to Control [3]: 2.8 Fold
- EXPI, Day 3 Fold Increase, Relative to Control [3]: 8.4 Fold
- FIGNL1, Day 3 Fold Increase, Relative to Control [3]: 2.7 Fold
- IL1RN, Day 3 Fold Increase, Relative to Control [3]: 4.2 Fold
- LGALS3, Day 3 Fold Increase, Relative to Control [3]: 7.3 Fold
- NELF, Day 3 Fold Increase, Relative to Control [3]: 3.7 Fold
- S100A4, Day 3 Fold Increase, Relative to Control [3]: 2.5 Fold
- TMEM40, Day 3 Fold Increase, Relative to Control [3]: 6.9 Fold
- TMEM109, Day 3 Fold Increase, Relative to Control [3]: 3.6 Fold
- TR1P13, Day 3 Fold Increase, Relative to Control [3]: 3.0 Fold
- 5ssca1 transcript, 1 DAY DMP-777 vs CONTROL [4]: 8.9
- Atf3 transcript, 1 DAY DMP-777 vs CONTROL [4]: 311.4
- Cdc2a transcript, 1 DAY DMP-777 vs CONTROL [4]: 11.7
- Cdca1 transcript, 1 DAY DMP-777 vs CONTROL [4]: 9.2
- Cdca5 transcript, 1 DAY DMP-777 vs CONTROL [4]: 17.3
- CdcaS transcript, 1 DAY DMP-777 vs CONTROL [4]: 7.3
- Cenph transcript, 1 DAY DMP-777 vs CONTROL [4]: 25.7
- Clspn transcript, 1 DAY DMP-777 vs CONTROL [4]: 9.5
- Crip1 transcript, 1 DAY DMP-777 vs CONTROL [4]: 9.5
- Dcc1 transcript, 1 DAY DMP-777 vs CONTROL [4]: 8.8
- Ereg transcript, 1 DAY DMP-777 vs CONTROL [4]: 3.6
- ExoscB transcript, 1 DAY DMP-777 vs CONTROL [4]: 6.2
- Fignl1 transcript, 1 DAY DMP-777 vs CONTROL [4]: 10.2
- Gadd45b transcript, 1 DAY DMP-777 vs CONTROL [4]: 8.6
- Il1m transcript, 1 DAY DMP-777 vs CONTROL [4]: 25.4
- Lgals3 transcript, 1 DAY DMP-777 vs CONTROL [4]: 46.8
- Lig1 transcript, 1 DAY DMP-777 vs CONTROL [4]: 9.3
- Mcm6 transcript, 1 DAY DMP-777 vs CONTROL [4]: 25.1
- Ncapg transcript, 1 DAY DMP-777 vs CONTROL [4]: 7.5
- Pole transcript, 1 DAY DMP-777 vs CONTROL [4]: 7.5
- Rad51 transcript, 1 DAY DMP-777 vs CONTROL [4]: 13.5
- Rad54b transcript, 1 DAY DMP-777 vs CONTROL [4]: 6.7
- Rfc3 transcript, 1 DAY DMP-777 vs CONTROL [4]: 8.1
- Rfc4 transcript, 1 DAY DMP-777 vs CONTROL [4]: 8.5
- Rrm1 transcript, 1 DAY DMP-777 vs CONTROL [4]: 8.4
- Tk1 transcript, 1 DAY DMP-777 vs CONTROL [4]: 10.1
